Data as given in the NIST ThermoML archive (doi:10.1021/je600554h).

Conditions: 101.33 kPa, Liquid; for viscosity: Capillary tube (Ostwald / Ubbelohde) method

CCCCCCCC [octane]
Conditions	mass density [kg/m3]	viscosity [mPa·s]
273.15 K	718.58	0.718
278.15 K	714.61	0.671
283.15 K	710.62	0.623
288.15 K	706.62	0.584
293.15 K	702.61	0.545
298.15 K	698.57	0.514
303.15 K	694.52	0.486
308.15 K	690.44	0.459
313.15 K	686.35	0.434
318.15 K	682.23	0.415
323.15 K	678.09	0.394
328.15 K	673.92	0.375
333.15 K	669.71	0.357
338.15 K	665.51	–
343.15 K	661.24	–
348.15 K	656.96	–
353.15 K	652.63	–
358.15 K	648.26	–
363.15 K	643.85	–

CCCCCCC [heptane]
Conditions	mass density [kg/m3]	viscosity [mPa·s]
273.15 K	700.75	0.526
278.15 K	696.59	0.495
283.15 K	692.42	0.465
288.15 K	688.22	0.438
293.15 K	684	0.415
298.15 K	679.75	0.392
303.15 K	675.48	0.372
308.15 K	671.19	0.354
313.15 K	666.86	0.336
318.15 K	662.5	–
323.15 K	658.11	–
328.15 K	653.68	–
333.15 K	649.22	–
338.15 K	644.72	–
343.15 K	640.17	–
348.15 K	635.58	–
353.15 K	630.41	–
358.15 K	626.34	–

COC(C)(C)C [2-methoxy-2-methylpropane]
Conditions	mass density [kg/m3]	viscosity [mPa·s]
273.15 K	761.34	0.443
278.15 K	756.14	0.417
283.15 K	751.02	0.392
288.15 K	745.85	0.37
293.15 K	740.65	–
298.15 K	735.4	–
303.15 K	730.1	–
308.15 K	724.82	–
313.15 K	719.42	–
318.15 K	713.96	–
